Measurements: PMC5061470, “Promiscuous targeting of bromodomains by bromosporine identifies BET proteins as master regulators of primary transcription response in leukemia” (Science Advances, 2016)

How the values were obtained:
Format in all cases: cell-based, human
[1] = tested on: K562; experiment: Genome-wide expression analysis / MetaCore, GSEA; conditions: K562, 6-hour treatment, 500 nM
[2] = tested on: MV4;11; experiment: Genome-wide expression analysis / MetaCore, GSEA; conditions: MV4;11, 6-hour treatment, 500 nM
[3] = tested on: MV4;11; experiment: cells; conditions: read-out: IC50, cell proliferation
[4] = tested on: KASUMI-1; experiment: cells; conditions: read-out: IC50, cell proliferation
[5] = tested on: OCI-AML3; experiment: cells; conditions: read-out: IC50, cell proliferation
[6] = tested on: K562
[7] = tested on: K562; remark: listed apart in the source
[8] = tested on: MV4;11

| Molecule | effect on gene expression [1] | effect on gene expression [2] | IC50 [3] | IC50 [4] | IC50 [5] | effect on cell proliferation [6] | effect on cell cycle [7] | effect on cell cycle [8] |
| --- | --- | --- | --- | --- | --- | --- | --- | --- |
| CCCOc1ccn2c(C(C)=O)cc(-c3ccccc3S(C)(=O)=O)c2c1 [GSK2801] | no significant effect | no significant effect |  |  |  |  |  |  |
| (+)-JQ1 [reference compound] |  |  | 80.2 nM | 42.7 nM | 49.5 nM | No significant effect | little effect on cell cycle | distinct G1 arrest with reduced S-phase populations |
